The text below walks through data of ChEMBL document CHEMBL1157445, “Design, synthesis and evaluation of isaindigotone derivatives as acetylcholinesterase and butyrylcholinesterase inhibitors” (Bioorg Med Chem Lett, 2008).

pIC50: −log10 of the molar value.

The target of assay [1] is Cholinesterase (Equus caballus, UniProt P81908).
Description: Inhibition of equine serum BuchE
Assay [2] addresses Acetylcholinesterase (Electrophorus electricus, UniProt O42275).
Description: Inhibition of electric eel AchE
The target of assay [3] is Cholinesterase (Homo sapiens, UniProt P06276). Kind of assay: Inhibition of BuchE.
Cholinesterase (Homo sapiens, UniProt P06276), sequence (P06276 whole entry): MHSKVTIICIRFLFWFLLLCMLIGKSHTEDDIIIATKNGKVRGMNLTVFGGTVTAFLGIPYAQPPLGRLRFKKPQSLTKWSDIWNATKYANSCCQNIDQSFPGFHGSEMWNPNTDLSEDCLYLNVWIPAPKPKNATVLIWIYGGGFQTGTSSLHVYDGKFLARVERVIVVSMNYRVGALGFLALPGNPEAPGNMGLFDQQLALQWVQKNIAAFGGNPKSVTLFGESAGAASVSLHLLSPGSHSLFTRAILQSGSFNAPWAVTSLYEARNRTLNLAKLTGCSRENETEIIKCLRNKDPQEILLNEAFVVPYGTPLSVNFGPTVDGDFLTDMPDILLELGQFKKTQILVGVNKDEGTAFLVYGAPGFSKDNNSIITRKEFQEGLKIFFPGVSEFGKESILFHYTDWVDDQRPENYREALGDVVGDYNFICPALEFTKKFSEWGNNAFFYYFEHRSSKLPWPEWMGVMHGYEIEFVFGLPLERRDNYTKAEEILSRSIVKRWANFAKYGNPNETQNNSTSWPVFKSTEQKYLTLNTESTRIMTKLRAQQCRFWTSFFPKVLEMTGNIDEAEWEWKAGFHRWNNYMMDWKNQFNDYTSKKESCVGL
The target of assay [4] is Acetylcholinesterase (Homo sapiens, UniProt P22303). Kind of assay: Inhibition of AchE.
Acetylcholinesterase (Homo sapiens, UniProt P22303), sequence (P22303 whole entry): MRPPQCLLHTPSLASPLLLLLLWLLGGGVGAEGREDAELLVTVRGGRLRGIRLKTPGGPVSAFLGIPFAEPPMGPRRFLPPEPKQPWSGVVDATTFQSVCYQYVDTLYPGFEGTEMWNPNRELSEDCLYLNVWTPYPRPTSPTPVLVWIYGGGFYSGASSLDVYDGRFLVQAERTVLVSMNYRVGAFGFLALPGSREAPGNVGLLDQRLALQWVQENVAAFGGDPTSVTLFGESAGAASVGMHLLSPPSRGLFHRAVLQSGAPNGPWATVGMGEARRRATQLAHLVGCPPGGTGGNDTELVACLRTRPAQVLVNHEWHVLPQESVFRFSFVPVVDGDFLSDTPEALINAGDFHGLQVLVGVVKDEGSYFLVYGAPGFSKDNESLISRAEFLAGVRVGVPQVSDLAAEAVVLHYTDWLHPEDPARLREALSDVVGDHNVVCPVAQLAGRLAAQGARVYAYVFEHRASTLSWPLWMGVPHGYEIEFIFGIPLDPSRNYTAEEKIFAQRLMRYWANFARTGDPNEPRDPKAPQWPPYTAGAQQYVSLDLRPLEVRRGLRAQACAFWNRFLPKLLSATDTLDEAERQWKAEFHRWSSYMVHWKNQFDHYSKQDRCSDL

Acetylcholinesterase (Electrophorus electricus, UniProt O42275), sequence (O42275 whole entry): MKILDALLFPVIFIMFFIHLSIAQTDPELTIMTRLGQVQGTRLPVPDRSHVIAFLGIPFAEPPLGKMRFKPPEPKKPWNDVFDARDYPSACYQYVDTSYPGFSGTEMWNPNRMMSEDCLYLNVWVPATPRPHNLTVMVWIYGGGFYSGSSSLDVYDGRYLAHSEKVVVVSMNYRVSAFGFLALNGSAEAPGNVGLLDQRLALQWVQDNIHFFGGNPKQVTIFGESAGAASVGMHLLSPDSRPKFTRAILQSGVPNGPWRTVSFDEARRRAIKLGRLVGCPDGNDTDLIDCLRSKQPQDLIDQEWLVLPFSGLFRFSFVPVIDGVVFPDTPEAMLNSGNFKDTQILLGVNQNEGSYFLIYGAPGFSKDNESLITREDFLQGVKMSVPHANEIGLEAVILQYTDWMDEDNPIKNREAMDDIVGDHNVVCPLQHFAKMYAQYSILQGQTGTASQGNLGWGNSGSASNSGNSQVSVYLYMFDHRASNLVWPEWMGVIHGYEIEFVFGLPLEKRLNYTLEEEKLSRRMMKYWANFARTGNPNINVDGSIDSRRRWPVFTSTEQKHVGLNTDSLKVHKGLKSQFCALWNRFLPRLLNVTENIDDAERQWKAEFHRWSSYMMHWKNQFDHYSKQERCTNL
Cholinesterase (Equus caballus, UniProt P81908), sequence (P81908 whole entry): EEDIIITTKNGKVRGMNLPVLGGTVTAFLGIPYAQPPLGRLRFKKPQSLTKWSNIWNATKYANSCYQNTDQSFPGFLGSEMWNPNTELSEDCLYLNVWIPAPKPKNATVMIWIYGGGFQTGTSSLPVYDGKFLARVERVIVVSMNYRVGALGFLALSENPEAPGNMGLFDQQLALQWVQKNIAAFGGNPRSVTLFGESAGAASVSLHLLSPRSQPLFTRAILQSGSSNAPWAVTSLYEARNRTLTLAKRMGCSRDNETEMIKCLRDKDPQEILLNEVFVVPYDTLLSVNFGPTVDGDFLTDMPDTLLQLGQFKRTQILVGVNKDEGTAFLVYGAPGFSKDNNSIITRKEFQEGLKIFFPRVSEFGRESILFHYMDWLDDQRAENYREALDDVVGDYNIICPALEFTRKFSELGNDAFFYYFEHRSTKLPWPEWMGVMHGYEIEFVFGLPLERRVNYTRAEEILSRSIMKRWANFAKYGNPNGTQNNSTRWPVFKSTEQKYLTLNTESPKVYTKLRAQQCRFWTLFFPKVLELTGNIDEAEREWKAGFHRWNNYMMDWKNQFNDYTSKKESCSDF

By pIC50 is commonly meant the IC50 on a negative log10 scale, so that one unit is a factor of ten. For `CCN(CC)CCCOc1ccc(CC2CCn3c2nc2ccccc2c3=O)cc1` (stereo not drawn), the pIC50 is under 4.70 on Cholinesterase [1] and 5.05 at Acetylcholinesterase [2].
For `O=c1c2ccccc2nc2n1CCC2Cc1ccc(OCCN2CCCCC2)cc1` (stereo not drawn) the same measures were 5.08 and 6.12.
For `O=c1c2ccccc2nc2n1CC/C2=C\c1ccc(OCCCN2CCCCC2)cc1` the same measures were 5.78 and 6.14.
In the case of `O=c1c2ccccc2nc2n1CCC2Cc1ccc(OCCCN2CCCCC2)cc1` (stereo not drawn), the figures for the pIC50 on Cholinesterase [1] and on Acetylcholinesterase [2] were 5.24 and 5.25, respectively.
`O=c1c2ccccc2nc2n1CCC2` [DEOXYVASICINONE]: the values for the pIC50 at Cholinesterase [3] and on Acetylcholinesterase [4] were 4.60 and 4.08, respectively.
For `CCN(CC)CCOc1ccc(CC2CCn3c2nc2ccccc2c3=O)cc1` (stereo not drawn), the pIC50 at Cholinesterase [1] was under 4.70; against Acetylcholinesterase [2] it was 5.79.
For `O=c1c2ccccc2nc2n1CC/C2=C\c1ccc(OCCN2CCCCC2)cc1` the same measures were 5.52 and 6.80.
On to `CCN(CC)CCCOc1ccc(/C=C2\CCn3c2nc2ccccc2c3=O)cc1`, for which the pIC50 at Cholinesterase [1] is 5.15; on Acetylcholinesterase [2] it was 5.62.
The matching figures for `CCN(CC)CCOc1ccc(/C=C2\CCn3c2nc2ccccc2c3=O)cc1`: 4.90 and 6.32.
